Measured values: patent US7737120B2 (Aicuris GmbH & Co. KG, priority 2004, dated 2010)
Entries after “also recorded” stand apart in the source; their conditions may differ.

Tests used:
[1] = tested on: papain; experiment: papain (1:50) in cleavage buffer (0.1 M sodium phosphate/10 mM cysteine, 2 mM EDTA pH 6.5) with methanol; conditions: 37° C., up to 24 h
[2] = tested on: chymotrypsin; experiment: chymotrypsin (1:50) in cleavage buffer (0.1 M ammonium hydrogencarbonate/0.5 M urea pH 8) with methanol; conditions: 37° C., up to 24 h
[3] = tested on: subtilisin; experiment: subtilisin (1:50) in cleavage buffer (0.1 M ammonium hydrogencarbonate/0.5 M urea pH 8) with methanol; conditions: 37° C., up to 24 h
[4] = tested on: bromelain; experiment: bromelain (1:50) in cleavage buffer (0.1 M sodium phosphate, 10 mM cysteine, 2 mM EDTA pH 6.5) with methanol; conditions: 37° C., up to 24 h
[5] = tested on: thermolysin; experiment: thermolysin (1:50) in cleavage buffer (0.1 M ammonium hydrogencarbonate/0.5 M urea pH 8) with methanol; conditions: 37° C., up to 24 h
[6] = tested on: chymotrypsin; experiment: preparative cleavage, chymotrypsin (1:25) in cleavage buffer (0.1 M ammonium hydrogencarbonate/0.5 M urea pH 8) with methanol; conditions: 37° C., up to about 70 min
[7] = tested on: thermolysin; experiment: thermolysin (1:50) in cleavage buffer (0.1 M tris(hydroxymethyl)aminomethane/5 mM calcium chloride pH 7.45) with methanol; conditions: 37° C., up to 24 h
[8] = tested on: proteinase K; experiment: proteinase K (1:50) in cleavage buffer (0.1 M sodium tetraborate pH 9) with methanol; conditions: 37° C., up to 24 h
[9] = tested on: pepsin; experiment: pepsin; conditions: cited from earlier work
[10] = the buffer used (enzymatic digestion experiments)
[11] = tested on: pepsin, trypsin, chymotrypsin and mucosal peptidase; conditions: cited from earlier work
[12] = tested on: Gram-positive aerobic and anaerobic bacteria; conditions: statement in words, background section; cited from earlier work

Row | Substance | fragment found [1] | fragment found [2] | fragment found [3] | fragment found [4] | fragment found [5] | fragment found [6] | fragment found [7] | fragment found [8] | not cleaved [9] | fragment found [10] | enzymatic digestion [11] | activity against Gram-positive aerobic and anaerobic bacteria [12]
1 | D-Leu-Leu-Ala(3-cyclohexyl)-Leu(OH)-Leu-D-Arg-Ile-allo-Thr-Gly-Asn(OH)-Ser | Peptide 5-11 (Leu-Arg-Ile-(allo)Thr-Gly-Asn(OH)-Ser); also recorded: Peptide 5-9 (Leu-Arg-Ile-(allo)Thr-Gly); also recorded: Peptide 10-11 (Asn(OH)-Ser); also recorded: Peptide 1-4 (Leu-Leu-PTHAla(3-cyclohexyl)*-Leu(OH)) | Peptide 4-11 (Leu(OH)-Leu-Arg-Ile-(allo)Thr-Gly-Asn(OH)-Ser); also recorded: Peptide 1-3 (Leu-Leu-PTHAla(3-cyclohexyl)*); also recorded: deamidated form (1-11); also recorded: deamidated form (4-11) | Peptide 4-11 (Leu(OH)-Leu-Arg-Ile-(allo)Thr-Gly-Asn(OH)-Ser); also recorded: Peptide 1-3 (Leu-Leu-PTHAla(3-cyclohexyl)*) | Peptide 1-9 (Leu-Leu-PTHAla(3-cyclohexyl)*-Leu(OH)-Leu-Arg-Ile-(allo)Thr-Gly); also recorded: Peptide 10-11 (Asn(OH)-Ser) | Peptide 1-2 (Leu-Leu) | fragment 1-3 (LL(3-cyclohexyl)A); also recorded: fragment 4-11 | – | – | – | – | – | –
2 | D-Leu-Leu-Phe-Leu(OH)-Leu-D-Arg-Ile-allo-Thr-Gly-Asn(OH)-Ser | Peptide 5-11 (Leu-Arg-Ile-(allo)Thr-Gly-Asn(OH)-Ser); also recorded: Peptide 5-9 (Leu-Arg-Ile-(allo)Thr-Gly); also recorded: Peptide 10-11 (Asn(OH)-Ser); also recorded: Peptide 1-4 (Leu-Leu-Phe-Leu(OH)) | Peptide 4-11 (Leu(OH)-Leu-Arg-Ile-(allo)Thr-Gly-Asn(OH)-Ser); also recorded: Peptide 1-3 (Leu-Leu-Phe) | Peptide 4-11 (Leu(OH)-Leu-Arg-Ile-(allo)Thr-Gly-Asn(OH)-Ser); also recorded: Peptide 1-3 (Leu-Leu-Phe) | Peptide 1-9 (Leu-Leu-Phe-Leu(OH)-Leu-Arg-Ile-(allo)Thr-Gly); also recorded: Peptide 10-11 (Asn(OH)-Ser) | – | fragment 4-11; also recorded: fragment 1-3 (LLF) | Peptide 3-11 (Phe-Leu(OH)-Leu-Arg-Ile-(allo)Thr-Gly-Asn(OH)-Ser); also recorded: Peptide 1-2 (Leu-Leu) | Peptide 4-11 (Leu(OH)-Leu-Arg-Ile-(allo)Thr-Gly-Asn(OH)-Ser); also recorded: Peptide 5-11 (Leu-Arg-Ile-(allo)Thr-Gly-Asn(OH)-Ser) | – | – | – | –
3 | D-Leucyl-L-leucyl-[(3R)-3-hydroxy-L-phenylalanyl)]-[(3R)-3-hydroxy-L-leucyl]-L-leucyl-D-arginyl-L-isoleucyl-L-allothreonyl-glycyl-[(3S)-3-hydroxy-L-asparaginyl]-L-serine-C1^0.11-O3^0.3-lactone bistrifluoroacetate | – | – | – | – | – | – | – | – | no enzymatic digestion (in the case of pepsin) | open-chain lysobactin; also recorded: β-hydroxyaspartate unit | – | –
4 | D-Leucyl-N-1-{(3S,6S,12S,15S,18R,21S,24S,27S,28R)-6-[(1S)-2-amino-1-hydroxy-2-oxoethyl-]18-(3-{[amino(imino)methyl]amino}propyl)-12-[(1S)-1-hydroxyethyl]-3-(hydroxymethyl)-24-[(1R)-1-hydroxy-2-methylpropyl]-21-isobutyl-15-[(1S)-1-methylpropyl]-2,5,8,11,14,17,20,23,26-nonaoxo-28-phenyl-1-oxa-4,7,10,13,16,19,22,25-octaazacyclo-octacosan-27-yl}-L-leucinamide Bistrifluoroacetate [Lysobactin] | – | – | – | – | – | – | – | – | – | – | no (such as in the case of pepsin, for example) or only inadequate enzymatic digestion | strong activity
